The results in this text go back to ChEMBL document CHEMBL1201862, “PubChem BioAssay data set” (2004).

Some test systems named below: SF-268; IGROV-1; Hs-578T; MOLT-4; U-251; OVCAR-5; SN12C; CCRF-CEM; NCI-H23; SK-MEL-5; MCF7; A549; HL-60; MDA-N; NCI-H226; A498; OVCAR-8; RXF 393; UACC-257; LOX IMVI.
Experiment in all cases: DTP human tumour cell line panel, 48 h

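Briefly, cells in 96-well plates were exposed to five compound concentrations for 48 h, and endpoints were estimated by linear interpolation. Abbreviation: GI50, concentration required for 50% inhibition of growth.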 Activity calls are given as the source filed them. Cut-off read from the data, not from the text of the source: active = GI50 up to about 1.1 µM and inactive = higher. Where only a bound is given, the exact number is not on record here.

Take `Nc1nc(N)c2cc(Sc3cccc(C(F)(F)F)c3)ccc2n1` [WR-159412]: the GI50 with SF-268 was 2.22 µM (inactive); with IGROV-1, 0.708 µM (active); in the test on Hs-578T, 2.66 µM (inactive); in the test on MOLT-4, 0.271 µM (active); with U-251, 0.771 µM (active); with OVCAR-5, 13 µM (inactive). For the same compound, the GI50 in the test with SN12C is 0.729 µM (active); in the test on CCRF-CEM, 0.53 µM (active); in the test on NCI-H23, 2.99 µM (inactive); in the test with SK-MEL-5, 3.71 µM (inactive); with MCF7 it was 2.86 µM (inactive); with A549 it was 0.367 µM (active). For the same compound, the GI50 in the test with HL-60 is 1.62 µM (inactive); with MDA-N, 0.371 µM (active).

For `O=c1ccc(=O)c2c1c1[nH]c3ccccc3c1c1c(=O)c3ccccc3c(=O)c21`, the GI50 with SF-268 is > 10 µM (inactive); in the test on NCI-H226, > 10 µM (inactive); in the test with A498, > 10 µM (inactive); in the test on IGROV-1, > 10 µM (inactive); with Hs-578T, > 10 µM (inactive); with MOLT-4, 3.24 µM (inactive). In addition, the GI50 in the test on U-251 is > 10 µM (inactive); in the test on OVCAR-5 it was > 10 µM (inactive); with OVCAR-8, > 10 µM (inactive); with SN12C, > 10 µM (inactive); with RXF 393 it was > 10 µM (inactive); with CCRF-CEM, 3.19 µM (inactive). In addition, the GI50 in the test on UACC-257 was > 10 µM (inactive); with NCI-H23, > 10 µM (inactive); with SK-MEL-5 it was > 10 µM (inactive); in the test on A549 it was > 10 µM (inactive); in the test with HL-60, 3.85 µM (inactive); in the test with LOX IMVI it was > 10 µM (inactive).

In the case of `C/C=C/[C@@]1(OC(=O)c2ccccc2)C[C@@H]2CCCC[C@@H]21`, the GI50 is 17.1 µM (inactive) in the test on SF-268; 16.5 µM (inactive) with NCI-H226; 17 µM (inactive) in the test on IGROV-1; 13.8 µM (inactive) with Hs-578T; 17.9 µM (inactive) in the test on MOLT-4; 16.3 µM (inactive) in the test on U-251. Besides, the GI50 in the test on OVCAR-5 is 17.1 µM (inactive); with OVCAR-8 it was 18.5 µM (inactive); with SN12C, 17.5 µM (inactive); with CCRF-CEM, 18.3 µM (inactive); in the test with UACC-257 it was 18.3 µM (inactive); with NCI-H23, 16.5 µM (inactive). In addition, the GI50 was 15.9 µM (inactive) in the test on SK-MEL-5; 18.9 µM (inactive) in the test on MCF7; 18.5 µM (inactive) with A549; 14 µM (inactive) in the test on HL-60; 17.4 µM (inactive) in the test on MDA-N; 21.9 µM (inactive) in the test on LOX IMVI.

For `Cc1ccc2[nH]c3c(c2c1)CCC/C3=N/N=C(N)N`, the GI50 with NCI-H226 is 2.11 µM (inactive); with A498, 7.14 µM (inactive); with IGROV-1, 1.62 µM (inactive); in the test on MOLT-4, 2.09 µM (inactive); in the test with U-251, 2.1 µM (inactive); with OVCAR-5 it was 2.09 µM (inactive). For the same compound, the GI50 was 1.91 µM (inactive) in the test on OVCAR-8; 1.58 µM (inactive) in the test with SN12C; 2.15 µM (inactive) with RXF 393; 2.29 µM (inactive) in the test on CCRF-CEM; 2.51 µM (inactive) with UACC-257; 3.06 µM (inactive) with NCI-H23. Also, the GI50 in the test with SK-MEL-5 was 1.9 µM (inactive); in the test with MCF7, 1.44 µM (inactive); in the test with A549 it was 1.89 µM (inactive); with HL-60, 9.4 µM (inactive); in the test on MDA-N it was 1.49 µM (inactive); in the test with LOX IMVI, 1.84 µM (inactive).

With `CC(C)(C)OC(=O)NCCNCCNc1ccccc1`, the GI50 in the test on NCI-H226, with IGROV-1, in the test on MOLT-4, in the test with U-251, in the test on OVCAR-5 and in the test with OVCAR-8 was > 100 µM (inactive) in each case. The GI50 with SN12C was > 100 µM (inactive); in the test on RXF 393, > 100 µM (inactive); with CCRF-CEM it was > 100 µM (inactive); with UACC-257, > 100 µM (inactive); in the test on NCI-H23, > 100 µM (inactive); in the test on SK-MEL-5 it was 62.1 µM (inactive). For the same compound, the GI50 in the test with MCF7 was > 100 µM (inactive); with A549, > 100 µM (inactive); in the test with MDA-N, 97.5 µM (inactive); in the test on LOX IMVI, > 100 µM (inactive).

With `Cn1c2ccccc2c(=O)c2cccc(C(=O)NCC(=O)O)c21`, the GI50 is > 100 µM (inactive) in the test with SF-268; 85.9 µM (inactive) in the test on NCI-H226; 85.1 µM (inactive) in the test on IGROV-1; > 100 µM (inactive) with Hs-578T; > 100 µM (inactive) with MOLT-4; > 100 µM (inactive) with U-251. Besides, the GI50 in the test with OVCAR-5, in the test with OVCAR-8, in the test with SN12C, in the test with UACC-257, in the test on NCI-H23 and with SK-MEL-5 was > 100 µM (inactive) in each case. Further, the GI50 was > 100 µM (inactive) in the test with MCF7, > 100 µM (inactive) with A549, > 100 µM (inactive) with MDA-N and 71.3 µM (inactive) with LOX IMVI.

In the case of `N#Cc1nnc2ccccc2c1N`, the GI50 in the test with SF-268, in the test with NCI-H226, in the test on IGROV-1, with MOLT-4, in the test with U-251 and with OVCAR-5 was > 100 µM (inactive) throughout. For the same compound, the GI50 in the test on OVCAR-8, in the test on UACC-257, in the test on NCI-H23, in the test with SK-MEL-5, in the test on MCF7 and with A549 was > 100 µM (inactive) in each case. Moreover, the GI50 in the test on LOX IMVI is > 100 µM (inactive).

As to `O=C(O)CCC(NC(=O)c1ccc(Oc2nc3ccccc3nc2-c2ccccc2)cc1)C(=O)O` (stereo not drawn), the GI50 in the test on SF-268, with NCI-H226, with A498, with IGROV-1, in the test with MOLT-4 and in the test with U-251 was > 100 µM (inactive) each time. In addition, the GI50 in the test on OVCAR-5, with OVCAR-8, in the test with SN12C, with RXF 393, in the test with CCRF-CEM and in the test with UACC-257 was > 100 µM (inactive) in each case. The GI50 in the test on NCI-H23, with MCF7, in the test on A549, with HL-60, in the test with MDA-N and in the test on LOX IMVI was > 100 µM (inactive) each time.

For the compound `C/C(Nc1ccc(F)cc1)=C1/CCOC1=O`, the GI50 was > 100 µM (inactive) in the test with SF-268; 91.6 µM (inactive) with NCI-H226; > 100 µM (inactive) in the test on A498; > 100 µM (inactive) in the test on IGROV-1; > 100 µM (inactive) in the test with Hs-578T; 24.5 µM (inactive) in the test on MOLT-4. The GI50 is > 100 µM (inactive) with U-251; 17.3 µM (inactive) in the test on OVCAR-8; > 100 µM (inactive) with SN12C; 4.73 µM (inactive) in the test on RXF 393; > 100 µM (inactive) with CCRF-CEM; > 100 µM (inactive) in the test with UACC-257. The GI50 in the test on NCI-H23 is > 100 µM (inactive); in the test with SK-MEL-5, 12.9 µM (inactive); in the test on A549 it was 90.4 µM (inactive); in the test on HL-60, 12.4 µM (inactive); in the test on LOX IMVI, 2.25 µM (inactive).

Consider `CSc1nc2c(c(=O)[nH]1)N=C(c1ccc(Cl)cc1)CC(c1ccccc1)N2` (stereo not drawn), for which the GI50 with NCI-H226 is 24.8 µM (inactive); with A498 it was 30.2 µM (inactive); in the test with IGROV-1 it was 15.5 µM (inactive); with MOLT-4, 17.7 µM (inactive); in the test with U-251 it was 17.7 µM (inactive); in the test with OVCAR-5, 18.1 µM (inactive). In addition, the GI50 is 16.5 µM (inactive) in the test with OVCAR-8; 16.4 µM (inactive) with SN12C; 17.2 µM (inactive) with RXF 393; 17.1 µM (inactive) in the test with CCRF-CEM; 16.2 µM (inactive) in the test on UACC-257; 14.7 µM (inactive) in the test with NCI-H23. Also, the GI50 is 13.3 µM (inactive) in the test on SK-MEL-5; 19.1 µM (inactive) in the test on MCF7; 13.6 µM (inactive) in the test with A549; 16.7 µM (inactive) with HL-60; 17.6 µM (inactive) in the test with MDA-N; 18.7 µM (inactive) in the test with LOX IMVI.

As to `[O-][S+]1c2ccccc2N=C(c2ccc3ccccc3c2)CC1c1ccccc1F` (stereo not drawn), the GI50 is > 100 µM (inactive) in the test on SF-268; 82.2 µM (inactive) in the test with NCI-H226; 22.3 µM (inactive) in the test on A498; > 100 µM (inactive) in the test with IGROV-1; 48.2 µM (inactive) in the test with MOLT-4; > 100 µM (inactive) with U-251. Also, the GI50 was > 100 µM (inactive) in the test on OVCAR-5; > 100 µM (inactive) in the test with OVCAR-8; > 100 µM (inactive) with SN12C; > 100 µM (inactive) with RXF 393; 67.8 µM (inactive) with CCRF-CEM; > 100 µM (inactive) in the test on UACC-257. Moreover, the GI50 in the test on NCI-H23, in the test on SK-MEL-5, with A549, in the test with HL-60 and in the test with LOX IMVI was > 100 µM (inactive) each time.

On to `COc1cc2c(cc1C)NC(=O)/C2=C\c1ccncc1`, for which the GI50 in the test with SF-268 was 3.83 µM (inactive); in the test on IGROV-1, 2.43 µM (inactive); in the test on Hs-578T, 3.6 µM (inactive); in the test with U-251, 4.39 µM (inactive); with OVCAR-5, 10.9 µM (inactive); in the test with OVCAR-8 it was 2.52 µM (inactive). Further, the GI50 in the test with SN12C was 6.15 µM (inactive); in the test on RXF 393 it was 3.76 µM (inactive); in the test on CCRF-CEM, 2.75 µM (inactive); in the test on UACC-257 it was 5.19 µM (inactive); with NCI-H23, 3.43 µM (inactive); in the test on SK-MEL-5 it was 2.73 µM (inactive). For the same compound, the figures for the GI50 with MCF7, in the test on A549 and in the test on HL-60 were 3.03 µM (inactive), 15.3 µM (inactive) and 3.73 µM (inactive), respectively.

The term GI50 denotes the concentration giving 50% growth inhibition.
